# Assay results: US11576987B2, “Compositions and methods of treating melanoma” (UNIVERSITY OF IOWA RESEARCH FOUNDATION, priority 2016, dated 2023)
# Counter-ions that a name gives are not always drawn.
# How the values were obtained:
# [1] = system: MC1R expression; test: Real-time PCR analysis of MC1R expression in melanoma cells; type: cell-based, human; details: substantiated by flow cytometry and radiopeptide binding
# Experimental: FIG. 10. Real-time PCR analysis of MC1R expression in A2058 and MEWO melanoma cells. A2058 cells were exposed to BRAFi GSK2118436, MEKi GSK1120212 and HDACi PBA for 24 h. Similarly, MEWO cells were treated with PBA and SAHA. Total RNA was isolated and reverse transcripted to cDNA. Real-time PCR was performed using 50 ng of each cDNA sample with labeled primer VIC-MC1R and FAM-NADPH. mRNA fold changes were calculated by ΔΔCt method and expressed as (n=3; Mean±SEM).
# qPCR measurements are included to measure the change in MCR1 mRNA with changes in the concentration and incubation time for each drug and combinations (FIG. 10). These experiments are carried out as in FIG. 10 according to manufacturers' protocols, cells are seeded into 6-well plates until ˜80% confluent. After drug treatments, total RNA is isolated (Qiagen RNeasy Mini Kit). 1 μg of total RNA from each cell sample is used for reverse transcription using a high capacity reverse transcription kit (Applied Biosystem). cDNA samples are kept at −80° C. until use. Upon use, cDNA templates are employed in the qRT-PCR using a Taqman Gene Expression Assay for human MC1R (Assay ID: Hs00267167_s1). Human 18S (Assay ID: Hs99999901_s1) and human GAPDH (Assay ID: Hs03929097_g1) are used as housekeeping gene controls. […] Reactions are carried out in Applied Biosystem 7900HT. mRNA level is calculated by comparative ΔΔCt method.
# [2] = system: metastatic melanoma; details: cited from earlier work
smiles,measurement,setting,value
"O=C(O)CCCc1ccccc1 [PBA, 4-phenylbutyric acid, sodium salt]",MCR1 expression by RT-PCR,[1],Enhanced expression of MCR1
same,tolerated dose in patients,[2],up to 27 g/day
